Measured values published in patent US8367349B2, “Methods for identifying modulators of LRRK2” (Medical Research Council, priority 2010, dated 2013).

Columns and labels:
[1] = molecular target: T1, GFP-LRRK2 (Homo sapiens, UniProt Q5S007); experiment: Kinase inhibitor panel: Ser910/Ser935 phosphorylation in HEK293 cells stably expressing GFP-LRRK2; type: cell-based; conditions: HEK293 GFP-LRRK2, 90 minutes, inhibitors at the higher limits of concentrations routinely employed
T1 construct: immunoprecipitates of stably expressed full length GFP-LRRK2; expressed in transfected cells
Protocol: FIG. 16. HEK-293 stably expressing GFP-LRRK2 were treated with DMSO, or the following inhibitors dissolved in DMSO, at the indicated concentration for 90 minutes. […] Total LRRK2 was assessed by GFP immunoblot. The immunoblots shown are representative of 2 independent experiments. Cell transfections were performed by the polyethylenimine method. Where inhibitors are utilized, they were dissolved in DMSO and used at the indicated concentrations with an equivalent volume of DMSO used as a control. The final concentration of DMSO in the culture medium was never more than 0.1% (v/v). Inhibitors were added to the culture medium for the indicated times before lysis. Per 15 cm dish, HEK 293 cells were lysed with 1.0 ml and 3T3 cells were lysed with 0.6 ml of lysis buffer supplemented with the indicated detergent and clarified by centrifugation at 16,000×g at 4° C. for 10 minutes. After induction and inhibitor treatment, T-REx-GFP expressing cells were lysed at room temperature with SDS lysis buffer after washing with PBS. […] Protein concentrations were determined using the Bradford method with BSA as the standard. […] Immune complexes were washed twice with lysis buffer supplemented with 0.3 M NaCl and twice with Buffer A. Precipitates were either used as a source of kinase or immediately analyzed by immunoblot. […] DIG 14-3-3 was detected with HRP labelled anti-DIG Fab fragments (Roche).

[2] = molecular target: T2, LRRK2[A2016T+G2019S] (Homo sapiens, UniProt Q5S007, A2016T/G2019S); experiment: Ser910/Ser935 phosphorylation and 14-3-3 binding of drug resistant LRRK2[A2016T+G2019S] in HEK-293 cells; type: cell-based; conditions: HEK-293 over-expressing LRRK2[A2016T+G2019S], 90 minutes
T2 construct: expressed in transfected cells; host or cells: HEK-293 cells, transient transfection
T2 sequence (Q5S007 whole entry A2016T/G2019S): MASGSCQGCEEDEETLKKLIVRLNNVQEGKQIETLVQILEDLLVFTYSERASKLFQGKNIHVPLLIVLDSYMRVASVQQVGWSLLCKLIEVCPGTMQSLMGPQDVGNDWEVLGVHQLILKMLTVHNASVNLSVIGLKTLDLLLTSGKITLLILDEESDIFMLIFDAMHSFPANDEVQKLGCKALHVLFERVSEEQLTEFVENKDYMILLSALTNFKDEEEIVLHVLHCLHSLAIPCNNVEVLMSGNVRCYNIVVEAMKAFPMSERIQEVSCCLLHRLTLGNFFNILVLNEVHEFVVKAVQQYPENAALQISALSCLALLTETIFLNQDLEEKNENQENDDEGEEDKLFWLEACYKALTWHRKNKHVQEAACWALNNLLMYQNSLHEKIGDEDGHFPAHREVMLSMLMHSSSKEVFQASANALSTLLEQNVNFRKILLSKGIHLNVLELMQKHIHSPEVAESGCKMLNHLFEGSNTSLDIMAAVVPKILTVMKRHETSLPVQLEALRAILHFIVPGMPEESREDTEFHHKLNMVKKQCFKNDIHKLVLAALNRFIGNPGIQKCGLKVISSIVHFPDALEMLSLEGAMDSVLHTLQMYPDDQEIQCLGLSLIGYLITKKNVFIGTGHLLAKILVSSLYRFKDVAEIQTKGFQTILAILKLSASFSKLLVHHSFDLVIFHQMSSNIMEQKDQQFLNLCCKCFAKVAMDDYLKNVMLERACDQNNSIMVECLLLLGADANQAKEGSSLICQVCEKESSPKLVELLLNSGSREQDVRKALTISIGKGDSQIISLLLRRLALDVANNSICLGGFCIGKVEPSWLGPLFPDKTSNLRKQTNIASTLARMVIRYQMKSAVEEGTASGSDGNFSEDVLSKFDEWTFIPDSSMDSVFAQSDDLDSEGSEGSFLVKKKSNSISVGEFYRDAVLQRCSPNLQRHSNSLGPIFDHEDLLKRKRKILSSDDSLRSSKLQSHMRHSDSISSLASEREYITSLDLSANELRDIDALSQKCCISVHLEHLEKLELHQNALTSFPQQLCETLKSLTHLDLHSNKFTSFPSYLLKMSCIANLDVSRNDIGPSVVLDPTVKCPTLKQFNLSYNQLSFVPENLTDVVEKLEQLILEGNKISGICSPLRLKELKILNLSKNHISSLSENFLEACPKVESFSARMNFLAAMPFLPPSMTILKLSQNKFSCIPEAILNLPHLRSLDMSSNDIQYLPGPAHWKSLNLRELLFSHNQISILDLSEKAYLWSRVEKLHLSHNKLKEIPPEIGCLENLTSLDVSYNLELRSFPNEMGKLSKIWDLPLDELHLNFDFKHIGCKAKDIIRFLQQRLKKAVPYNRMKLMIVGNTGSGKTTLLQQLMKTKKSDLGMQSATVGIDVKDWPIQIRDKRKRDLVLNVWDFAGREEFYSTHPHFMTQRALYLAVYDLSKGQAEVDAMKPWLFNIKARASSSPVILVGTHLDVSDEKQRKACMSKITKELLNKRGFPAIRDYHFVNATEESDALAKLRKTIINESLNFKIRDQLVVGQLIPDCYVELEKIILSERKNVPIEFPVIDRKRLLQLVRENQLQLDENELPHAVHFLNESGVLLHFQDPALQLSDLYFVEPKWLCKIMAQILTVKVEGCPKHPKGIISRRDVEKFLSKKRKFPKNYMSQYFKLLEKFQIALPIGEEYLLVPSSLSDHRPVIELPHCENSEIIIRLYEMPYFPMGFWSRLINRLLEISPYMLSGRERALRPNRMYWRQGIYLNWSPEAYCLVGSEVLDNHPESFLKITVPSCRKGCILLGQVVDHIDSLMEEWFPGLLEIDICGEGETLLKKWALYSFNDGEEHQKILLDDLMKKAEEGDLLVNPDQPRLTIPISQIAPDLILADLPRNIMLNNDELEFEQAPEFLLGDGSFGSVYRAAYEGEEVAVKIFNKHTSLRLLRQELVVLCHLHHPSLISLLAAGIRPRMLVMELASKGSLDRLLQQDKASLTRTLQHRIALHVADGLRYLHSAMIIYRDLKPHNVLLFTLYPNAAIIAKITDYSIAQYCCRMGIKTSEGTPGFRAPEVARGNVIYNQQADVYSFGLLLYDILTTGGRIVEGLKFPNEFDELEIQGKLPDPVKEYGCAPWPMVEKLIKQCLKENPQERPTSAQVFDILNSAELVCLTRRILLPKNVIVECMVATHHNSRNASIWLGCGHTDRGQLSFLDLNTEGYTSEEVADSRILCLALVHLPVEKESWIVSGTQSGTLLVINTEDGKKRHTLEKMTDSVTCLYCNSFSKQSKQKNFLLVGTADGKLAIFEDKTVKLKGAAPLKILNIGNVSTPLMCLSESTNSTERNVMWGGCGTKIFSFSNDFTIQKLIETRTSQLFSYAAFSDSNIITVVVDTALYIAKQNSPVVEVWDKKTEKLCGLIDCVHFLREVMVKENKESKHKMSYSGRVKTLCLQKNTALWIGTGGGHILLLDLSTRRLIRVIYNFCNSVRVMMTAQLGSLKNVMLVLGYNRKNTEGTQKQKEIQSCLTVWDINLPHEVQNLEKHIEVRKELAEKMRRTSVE
Protocol: (§1) FIG. 5. […] Cells were lysed in lysis buffer supplemented with 0.5% NP40 and […] and subjected to anti-FLAG immunoprecipitation. Immunoprecipitates were resolved on 4-12% Novex SDS-polyacrylamide gels and subjected to immunoblot with FLAG (total LRRK2), anti-pS910, anti-pS935 as well as a 14-3-3 overlay assay.
(§2) Cell transfections were performed by the polyethylenimine method. Where inhibitors are utilized, they were dissolved in DMSO and used at the indicated concentrations with an equivalent volume of DMSO used as a control. The final concentration of DMSO in the culture medium was never more than 0.1% (v/v). Inhibitors were added to the culture medium for the indicated times before lysis. Per 15 cm dish, HEK 293 cells were lysed with 1.0 ml and 3T3 cells were lysed with 0.6 ml of lysis buffer supplemented with the indicated detergent and clarified by centrifugation at 16,000×g at 4° C. for 10 minutes. After induction and inhibitor treatment, T-REx-GFP expressing cells were lysed at room temperature with SDS lysis buffer after washing with PBS. SDS lysates were boiled and sonicated to reduce viscosity. When not used immediately, all lysate supernatants were snap frozen in liquid nitrogen and stored at −80° C. until use. Protein concentrations were determined using the Bradford method with BSA as the standard.
(§3) Immunological procedures. […]

[3] = molecular target: LRRK2 (Homo sapiens, UniProt Q5S007); conditions: wild type LRRK2, in vitro; read-out: IC50 for inhibition of LRRK2; cited from earlier work
LRRK2, sequence (Q5S007 whole entry): as the sequence (Q5S007 whole entry A2016T/G2019S) above, with T2016A, S2019G counted along it

[4] = molecular target: T3, LRRK2[G2019S] (Homo sapiens, UniProt Q5S007, G2019S); experiment: Ser910/Ser935 phosphorylation and 14-3-3 binding of Flag-LRRK2[G2019S] in HEK-293 cells; type: cell-based
T3 construct: expressed in transfected cells; host or cells: HEK-293 cells, transient transfection
T3 sequence (Q5S007 whole entry G2019S): as the sequence (Q5S007 whole entry A2016T/G2019S) above, with T2016A counted along it
Protocol: as §1, §2, §3

[5] = molecular target: LRRK2[Ala2016Thr] (Homo sapiens, UniProt Q5S007, A2016T); conditions: relative to normally sensitive LRRK2; cited from earlier work
[6] = molecular target: T4, wild type FLAG-LRRK2 (Homo sapiens, UniProt Q5S007); experiment: Ser910/Ser935 dephosphorylation of wild type FLAG-LRRK2 in 293 cells; type: cell-based
T4 construct: overexpressed full length human FLAG-LRRK2 expressed in HEK-293 cells; expressed in transfected cells; host or cells: HEK-293 cells, transient transfection
T4 sequence (Q5S007 whole entry): as the sequence (Q5S007 whole entry A2016T/G2019S) above, with T2016A, S2019G counted along it
Protocol: as §1, §2, §3

[7] = molecular target: T5, endogenous LRRK2 (Mus musculus, UniProt Q5S006); experiment: Ser910/Ser935 phosphorylation and 14-3-3 binding of endogenous LRRK2 in Swiss 3T3 cells; type: cell-based; conditions: 90 minutes
T5 construct: endogenous in cells; host or cells: Swiss 3T3 cells
T5 sequence (Q5S006 whole entry): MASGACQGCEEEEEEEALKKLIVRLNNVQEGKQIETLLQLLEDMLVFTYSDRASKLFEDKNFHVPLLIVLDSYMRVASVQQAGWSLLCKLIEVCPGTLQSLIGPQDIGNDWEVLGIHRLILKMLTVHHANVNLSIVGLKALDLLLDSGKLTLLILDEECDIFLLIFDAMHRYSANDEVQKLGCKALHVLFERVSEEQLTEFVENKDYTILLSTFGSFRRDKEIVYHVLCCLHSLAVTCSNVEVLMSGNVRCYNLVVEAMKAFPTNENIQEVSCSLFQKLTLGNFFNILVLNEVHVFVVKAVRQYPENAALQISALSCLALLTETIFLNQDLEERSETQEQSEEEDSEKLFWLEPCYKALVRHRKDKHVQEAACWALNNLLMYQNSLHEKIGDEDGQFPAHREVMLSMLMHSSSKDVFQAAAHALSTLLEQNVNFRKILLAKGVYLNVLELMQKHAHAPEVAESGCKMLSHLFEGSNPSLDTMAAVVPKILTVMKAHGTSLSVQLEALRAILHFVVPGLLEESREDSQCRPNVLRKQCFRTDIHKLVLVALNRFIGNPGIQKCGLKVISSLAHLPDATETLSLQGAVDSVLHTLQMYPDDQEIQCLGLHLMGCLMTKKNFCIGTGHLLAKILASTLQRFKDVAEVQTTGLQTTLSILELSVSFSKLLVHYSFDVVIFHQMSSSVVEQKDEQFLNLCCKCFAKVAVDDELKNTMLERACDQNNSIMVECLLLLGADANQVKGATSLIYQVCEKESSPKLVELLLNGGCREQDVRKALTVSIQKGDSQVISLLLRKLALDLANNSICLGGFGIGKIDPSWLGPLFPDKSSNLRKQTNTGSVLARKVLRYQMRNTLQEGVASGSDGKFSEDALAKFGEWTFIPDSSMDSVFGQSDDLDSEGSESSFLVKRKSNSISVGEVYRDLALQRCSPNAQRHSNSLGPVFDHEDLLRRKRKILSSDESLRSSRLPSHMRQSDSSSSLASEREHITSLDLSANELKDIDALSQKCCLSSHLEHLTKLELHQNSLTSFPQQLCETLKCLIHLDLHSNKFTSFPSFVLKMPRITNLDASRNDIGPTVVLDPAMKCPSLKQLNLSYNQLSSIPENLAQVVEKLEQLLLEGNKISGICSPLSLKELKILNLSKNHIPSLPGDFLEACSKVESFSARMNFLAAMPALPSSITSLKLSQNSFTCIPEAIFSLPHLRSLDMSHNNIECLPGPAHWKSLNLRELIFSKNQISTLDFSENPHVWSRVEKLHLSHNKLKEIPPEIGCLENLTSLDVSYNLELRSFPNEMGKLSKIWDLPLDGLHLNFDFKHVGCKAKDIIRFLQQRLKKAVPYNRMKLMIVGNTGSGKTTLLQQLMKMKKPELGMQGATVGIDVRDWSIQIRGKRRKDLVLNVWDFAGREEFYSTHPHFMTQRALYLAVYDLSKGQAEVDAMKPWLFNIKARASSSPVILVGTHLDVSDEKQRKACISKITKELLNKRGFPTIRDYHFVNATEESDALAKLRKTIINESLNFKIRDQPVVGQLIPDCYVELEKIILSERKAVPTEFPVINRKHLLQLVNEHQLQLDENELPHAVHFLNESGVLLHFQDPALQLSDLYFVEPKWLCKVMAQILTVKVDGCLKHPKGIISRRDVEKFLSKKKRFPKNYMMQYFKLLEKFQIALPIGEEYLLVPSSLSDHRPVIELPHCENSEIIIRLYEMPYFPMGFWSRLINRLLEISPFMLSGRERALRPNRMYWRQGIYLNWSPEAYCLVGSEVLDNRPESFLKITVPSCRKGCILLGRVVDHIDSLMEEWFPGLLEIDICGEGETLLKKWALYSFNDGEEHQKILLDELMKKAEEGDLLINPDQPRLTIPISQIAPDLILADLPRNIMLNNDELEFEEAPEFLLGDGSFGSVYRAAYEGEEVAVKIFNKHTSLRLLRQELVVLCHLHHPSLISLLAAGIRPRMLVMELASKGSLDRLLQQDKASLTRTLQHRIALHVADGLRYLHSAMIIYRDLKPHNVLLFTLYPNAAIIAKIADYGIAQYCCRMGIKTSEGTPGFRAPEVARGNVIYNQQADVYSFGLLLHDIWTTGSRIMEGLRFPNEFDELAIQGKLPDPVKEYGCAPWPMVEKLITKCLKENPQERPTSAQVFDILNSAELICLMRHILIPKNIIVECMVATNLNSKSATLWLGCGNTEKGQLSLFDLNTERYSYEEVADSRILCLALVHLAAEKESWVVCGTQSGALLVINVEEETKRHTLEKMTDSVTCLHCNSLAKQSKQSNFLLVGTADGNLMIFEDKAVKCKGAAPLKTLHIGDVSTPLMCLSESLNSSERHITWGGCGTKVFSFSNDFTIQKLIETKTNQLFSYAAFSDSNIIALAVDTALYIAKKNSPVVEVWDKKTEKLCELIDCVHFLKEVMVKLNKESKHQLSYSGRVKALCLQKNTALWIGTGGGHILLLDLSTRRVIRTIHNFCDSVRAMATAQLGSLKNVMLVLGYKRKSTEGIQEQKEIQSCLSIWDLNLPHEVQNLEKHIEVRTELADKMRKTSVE
Protocol: as §2
Immunological procedures. Cell lysates (10-30 μg) were resolved by electrophoresis on SDS polyacrylamide gels or Novex 4-12% gradient gels, and electroblotted to nitrocellulose membranes. Membranes were blocked with 5% skimmed milk (w/v) in 50 mM Tris/HCl, pH 7.5, 0.15 M NaCl and 0.1% (v/v) Tween (TBST Buffer). […]

[8] = test system: LRRK2[A2016T] or LRRK2[A2016T+G2019S]; experiment: Cytoplasmic localisation of drug resistant GFP-LRRK2[A2016T] or [A2016T+G2019S] in T-REx cells; type: cell-based, human
Protocol: (§4) FIG. 14. Disruption of 14-3-3 binding induces accumulation of LRRK2 within cytoplasmic aggregates. A.) Stable-inducible T-REx cells lines harboring the indicated forms of LRRK2 were induced for 24 hours with 0.1 μg/ml doxycycline to induce expression of GFP-LRRK2. The indicated cell lines were treated in the absence or presence of the indicated dose of H-1152 for 90 min prior to fixation. Representative fluorescent micrographs of GFP-LRRK2 localisation are shown. Cytoplasmic aggregates of GFP-LRRK2 are indicated with white arrowheads. B.) Fluorescent micrographs representative of cultures of the indicated forms GFP-LRRK2 are shown. Cytoplasmic aggregates of GFP-LRRK2 are indicated with white arrowheads. Localisation analyses were performed in duplicate, and similar results observed in two independent experiments.
(§5) Fluorescence Microscopy. HEK-293 Flp-in T-REx were purchased from Invitrogen and stable cells harbouring GFP tagged wild type and mutant forms of LRRK2 were generated using standard protocols. Cells were plated in 4-well glass bottom, CC2 coated chamber slides (Nunc). One day after plating, cells were induced with 0.1 μg/ml doxycycline and 24 hr later, cells were fixed in 4% paraformaldehyde buffered in phosphate buffered saline (purchased from USB, # 19943). […]

[9] = molecular target: T5, endogenous LRRK2; experiment: Kinase activity of endogenous LRRK2 immunoprecipitated from inhibitor-treated Swiss 3T3 cells after wash-out; type: biochemical; conditions: 30 μM H1152 or 10 μM sunitinib for 2 h, inhibitor washed off, 20 μM Nictide
Protocol: Immunoprecipitates were washed with lysis buffer containing 0.5 M NaCl to remove inhibitor and were then incubated in kinase buffer containing 20 μM Nictide with the presence or absence of magnesium-ATP for 30 min. Following incubation, immunoprecipitates were centrifuged at 8000 rpm for 0.5 min and the supernatant spotted on to P81 paper for measurement of LRRK2 kinase activity. Sample buffer was added to the pelleted beads and LRRK2 S910 and S935 phosphorylation was quantified following immunoblot analysis. A membrane was also subjected to autoradiography to assess LRRK2 autophosphorylation.
LRRK2 Immunoprecipitation Kinase assays. Peptide Kinase Assays were set up in a total volume of 50 μl with immunoprecipitated LRRK2 as a source of kinase, in 50 mM Tris pH 7.5, 0.1 mM EGTA, 10 mM MgCl2 and 0.1 mM [γ-^32P]ATP (˜500-1000 cpm/pmol) in the presence of 30 μM Nictide peptide substrate. Reactions were terminated by applying 30 μl of the reaction mixture on to P81 phosphocellulose paper and immersion in 50 mM phosphoric acid. After extensive washing, reaction products were quantitated by Cerenkov counting. One half of the remaining reaction was subjected to immunoblot analysis using the Odyssey LICOR system and specific activity is represented as cpm/LICOR independent density values.

[10] = test system: GFP-LRRK2 or GFP-LRRK2[G2019S]; experiment: Cytoplasmic localisation of GFP-LRRK2 or GFP-LRRK2[G2019S] in T-REx cells (fluorescence microscopy); type: cell-based, human; conditions: drug sensitive GFP-LRRK2 or GFP-LRRK2[G2019S], 90 min before fixation
Protocol: as §4, §5

dephosphorylation of Ser910/Ser935 [1]	Compound	inhibition of Ser910 or Ser935 phosphorylation or 14-3-3 binding of drug resistant mutant [2]	IC50 [3] [nM]	potency in inducing dephosphorylation and impairing 14-3-3 binding: LRRK2[G2019S] compared with wild type LRRK2 ([4]; HEK-293 cells, Flag-LRRK2 forms)	dephosphorylation of LRRK2[G2019S] at Ser910 and Ser935 and disruption of 14-3-3 binding ([4]; HEK-293 over-expressing LRRK2[G2019S], 90 minutes)	fold less sensitive: drug resistant LRRK2[Ala2016Thr] mutant [5] [fold]	potency at inducing dephosphorylation of wild type FLAG-LRRK2 compared with endogenous LRRK2 in Swiss 3T3 cells [6]	concentration inducing almost complete dephosphorylation of Ser910 and Ser935 and loss of 14-3-3 binding [7] [µM]	dephosphorylation of endogenous LRRK2 at Ser910 and Ser935 with concomitant reduction in 14-3-3 binding ([7]; increasing amounts of inhibitor)	accumulation of LRRK2 within cytoplasmic pools [8]	endogenous LRRK2 kinase activity after treatment of cells [9]	accumulation of LRRK2 within cytoplasmic pools [10]
did not induce dephosphorylation	N#CC(c1ccnc(NCCc2cccnc2)n1)c1nc2ccccc2s1 (stereo not drawn) [AS601245]	–	–	–	–	–	–	–	–	–	–	–
–	Cc1cncc2cccc(S(=O)(=O)N3CCCNC[C@@H]3C)c12 [H-1152]	neither H-1152 nor sunitinib significantly inhibited	150	more potent	dose-dependent dephosphorylation	32	similar	10 to 30	dose dependent dephosphorylation	no cytoplasmic pool accumulation	did not affect	marked accumulation of LRRK2 within cytoplasmic pools
